Assay results taken from patent US11013780B2, “Methods of treating female infertility” (Myovant Sciences GmbH, priority 2016, dated 2021).
Where two headings read alike, the source gives them in different places. Where a SMILES comes first, the peptide text is derived from it. [ ]: non-standard residue; d: D form. Arg(Me) = CNC(=N)NCCC[C@H](N)C(=O)O; Hyp = O=C(O)[C@@H]1C[C@@H](O)CN1; azaGly = NNC(=O)O

Columns and labels:
[1] = Single dose PK, phase 1, healthy European men; assay type: in vivo, human; details: for half-life / AUC(0-inf) / AUC(0-t) / Cmax / Vd/F / Tmax / CL renal / dose excreted: male, human; for half-life / AUC(0-inf) / AUC(0-t) / Cmax / Vd/F / Tmax: plasma; for Vd/F: read-out: Vz/F; for Tmax: read-out: Tmax (median); for CL renal: urine and plasma, read-out: CLr (renal clearance) (converted); for dose excreted: urine
Procedure: The study was conducted in France.
Eighty-two healthy European male subjects aged 50 to 76 years were enrolled into nine cohorts. 81/82 subjects (98.8%) were white and 1/82 subject (1.2%) was black/African American. Subjects enrolled in the first six cohorts received 0.001, 0.003, 0.01, 0.03, 0.1, or 0.3 mg of API-MA or placebo by single SC bolus. In the 0.3 mg cohort, 6 subjects received API-MA and two received placebo. In the remaining cohorts, 7 subjects received API-MA and three received placebo. Subjects enrolled in the seventh, eighth, and ninth cohorts received 1, 3, or 6 mg of API-MA or placebo by single 2-hour SC infusion. In these cohorts, 6 subjects received API-MA and two received placebo.
To measure urinary excretion of API-MA, urine specimens were collected at the following nominal times: from 12 hours prior to dosing until dosing and 0 to 6, 6 to 12, 12 to 24, 24 to 48 and 48 to 72 hours postdose.
To measure urinary excretion of API-MA, urine specimens were collected at the following nominal times: from 12 hours prior to dosing until dosing and 0 to 6, 6 to 12, 12 to 24, 24 to 48, and 48 to 72 hours after the start of the infusion.

[2] = system: serum LH, FSH and PSA; assay: Multiple-dose pharmacodynamics, Japanese prostate cancer patients; assay type: in vivo, human
Procedure: The study was a phase 1 study in hormone naïve Japanese prostate cancer patients. Six patients received API-MA doses of 0.5 mg (3 patients) and 1.0 mg (3 patients) administered via 2-hour SC infusion once daily for 14 days. Summary statistics of serum concentrations of LH, FSH, GH, PRL, and TSH, as well as plasma concentration of ACTH and serum concentration of prostate-specific antigen (PSA), at baseline and at each evaluation point, changes from baseline were calculated for each dose, and the data (individual values and mean±standard deviation) were plotted against time for each dose. […] Changes in serum LH were similar between 0.5 and 1.0 mg of API-MA (data for API-MA 1.0 mg/day dose group not shown).

[3] = In vitro distribution into blood cells, dogs; assay type: in vitro ADME
Procedure: The in vitro distribution ratios of [^14C]API-MA into the blood cells at the concentrations of 0.01, 0.1, 1, and 10 μg/mL API-FB (free form) were 7.8%, 8.0%, 7.1%, and 4.8% for rats, 2.4%, 2.0%, 1.6%, and 1.2% for dogs, and 2.0%, 0.0%, 0.0%, and 0.5% for humans, respectively. […] The in vitro plasma protein binding ratios of [^14C]API-FB in rats, dogs, monkeys, and humans were determined by the ultracentrifugation method. In addition, the protein binding to human serum albumin (HSA), α1-acid glycoprotein (AGP), and HSA/AGP was investigated. […] In rats and dogs, a slight decrease in the binding ratio at the concentration range between 0.1 and 1.0 μg/mL API-FB was observed. In monkeys and humans, the binding was independent of the drug concentrations from 0.01 to 10 μg/mL API-FB.

[4] = subcutaneous, 2-hour INF 1 mg, geometric mean
[5] = subcutaneous, 2-hour INF 3 mg, geometric mean
[6] = subcutaneous, 2-hour INF 6 mg, geometric mean
[7] = single SC 0.001 mg, only 1 subject above LLOQ
[8] = single SC 0.003 mg, geometric mean
[9] = single SC 0.01 mg, geometric mean
[10] = single SC 0.03 mg, geometric mean
[11] = single SC 0.1 mg, geometric mean
[12] = single SC 0.3 mg, geometric mean
[13] = Japanese prostate cancer patients, 0.5 mg/day 2-hour SC infusion for 14 days

Question: For `CC(=O)O.CNC(=N)NCCC[C@H](NC(=O)[C@H](CC(C)C)NC(=O)NNC(=O)[C@H](Cc1ccccc1)NC(=O)[C@@H](NC(=O)[C@H](CC(N)=O)NC(=O)[C@@H]1C[C@@H](O)CN1C(=O)[C@@H](Cc1ccc(O)cc1)NC(C)=O)[C@@H](C)O)C(=O)N[C@@H](Cc1c[nH]c2ccccc12)C(N)=O` [API-MA, 2-(N-Acetyl-D-tyrosyl-trans-4-hydroxy-L-prolyl-Lasparaginyl-L-threonyl-L-phenylalanyl)-hydrazinocarbonyl-L-leucyl-Nω-methyl-L-arginyl-L-tryptophanamide monoacetate] (Ac-[dY][Hyp]NTF[azaGly]L[Arg(Me)]W-NH2), which half-life ([1]; subcutaneous, 3 mg, 2-hour INF 3 mg, read-out: T1/2 (median) (converted)) is on record?
Answer: Its half-life is 5.25 h.

Question: What about the half-life ([1]; subcutaneous, 6 mg, 2-hour INF 6 mg, read-out: T1/2 (median) (converted)) of the same compound?
Answer: Its half-life is 5.26 h.

Question: What about the half-life ([1]; subcutaneous, 6 mg, 3 and 6 mg, read-out: Mean T1/2 at the highest doses (converted)) of the same compound?
Answer: The half-life was ~5.2 h.

Question: What about the AUC(0-inf) [1, 4] of the same compound?
Answer: The AUC(0-inf) was 43.8 ng·h/mL.

Question: And the AUC(0-t) [1, 4]?
Answer: The AUC(0-t) was 43.7 ng·h/mL.

Question: And the Cmax [1, 4]?
Answer: The Cmax was 13.1 ng/mL.

Question: What about the Vd/F [1, 4] of the same compound?
Answer: Its Vd/F is 120 L.

Question: What about the Tmax ([1]; subcutaneous, 2-hour INF 1 mg) of the same compound?
Answer: Its Tmax is 2.25 h.

Question: And the AUC(0-inf) [1, 5]?
Answer: The AUC(0-inf) was 141 ng·h/mL.

Question: What about the AUC(0-t) [1, 5] of the same compound?
Answer: Its AUC(0-t) is 141 ng·h/mL.

Question: And the Cmax [1, 5]?
Answer: Its Cmax is 39.4 ng/mL.

Question: What about the Vd/F [1, 5] of the same compound?
Answer: The Vd/F was 150 L.

Question: What about the Tmax ([1]; subcutaneous, 2-hour INF 3 mg) of the same compound?
Answer: Its Tmax is 2.25 h.

Question: And the AUC(0-inf) [1, 6]?
Answer: Its AUC(0-inf) is 318 ng·h/mL.

Question: What about the AUC(0-t) [1, 6] of the same compound?
Answer: Its AUC(0-t) is 318 ng·h/mL.

Question: And the Cmax [1, 6]?
Answer: The Cmax was 82.5 ng/mL.

Question: And the Vd/F [1, 6]?
Answer: Its Vd/F is 141 L.

Question: What about the Tmax ([1]; subcutaneous, 2-hour INF 6 mg) of the same compound?
Answer: Its Tmax is 2.25 h.

Question: And the CL renal [1, 7]?
Answer: The CL renal was 17500 mL/min.

Question: What about the CL renal [1, 8] of the same compound?
Answer: The CL renal was 19700 mL/min.

Question: And the CL renal [1, 9]?
Answer: The CL renal was 17900 mL/min.

Question: And the CL renal [1, 10]?
Answer: The CL renal was 15600 mL/min.

Question: What about the CL renal [1, 11] of the same compound?
Answer: The CL renal was 17500 mL/min.

Question: What about the CL renal [1, 12] of the same compound?
Answer: The CL renal was 14300 mL/min.

Question: And the CL renal ([1]; subcutaneous, 2-hour INF 1 mg, geometric mean (% CV))?
Answer: Its CL renal is 11400 mL/min.

Question: And the CL renal ([1]; subcutaneous, 2-hour INF 3 mg, geometric mean (% CV))?
Answer: The CL renal was 13900 mL/min.

Question: And the CL renal ([1]; subcutaneous, 2-hour INF 6 mg, geometric mean (% CV))?
Answer: The CL renal was 16900 mL/min.

Question: And the dose excreted ([1]; sc, 0.003 to 6 mg, bolus and infusion, read-out: Fe, range over cohorts)?
Answer: Its dose excreted is 3.09 to 5.4%.

Question: What about the dose excreted ([1]; sc, 2-hour INF 1 mg, geometric mean (% CV), read-out: Fe (urine)) of the same compound?
Answer: The dose excreted was 3%.

Question: What about the dose excreted ([1]; sc, 2-hour INF 3 mg, geometric mean (% CV), read-out: Fe (urine)) of the same compound?
Answer: The dose excreted was 3.94%.

Question: What about the dose excreted ([1]; sc, 2-hour INF 6 mg, geometric mean (% CV), read-out: Fe (urine)) of the same compound?
Answer: The dose excreted was 5.38%.

Question: And the dose excreted ([1]; single SC 0.001 mg, only 1 subject above LLOQ, read-out: Fe (urine))?
Answer: The dose excreted was 3.47%.

Question: What about the dose excreted ([1]; single SC 0.003 mg, geometric mean, read-out: Fe (urine)) of the same compound?
Answer: The dose excreted was 3.97%.

Question: What about the dose excreted ([1]; single SC 0.01 mg, geometric mean, read-out: Fe (urine)) of the same compound?
Answer: Its dose excreted is 3.71%.

Question: What about the dose excreted ([1]; single SC 0.03 mg, geometric mean, read-out: Fe (urine)) of the same compound?
Answer: Its dose excreted is 3.34%.

Question: What about the dose excreted ([1]; single SC 0.1 mg, geometric mean, read-out: Fe (urine)) of the same compound?
Answer: The dose excreted was 4.08%.

Question: What about the dose excreted ([1]; single SC 0.3 mg, geometric mean, read-out: Fe (urine)) of the same compound?
Answer: Its dose excreted is 3.77%.

Question: What about the “Ae(0-t) (urine)” value [1, 7] of the same compound?
Answer: Its value is 34.658 ng.

Question: What about the “Fe (urine)” value [1, 7] of the same compound?
Answer: Its value is 3.466%.

Question: And the “Ae(0-t) (urine)” value [1, 8]?
Answer: Its value is 119.177 ng.

Question: What about the “Ae(0-t) (urine)” value [1, 9] of the same compound?
Answer: Its value is 370.540 ng.

Question: And the “Ae(0-t) (urine)” value [1, 10]?
Answer: Its value is 1003.082 ng.

Question: And the “Ae(0-t) (urine)” value [1, 11]?
Answer: Its value is 4077.298 ng.

Question: What about the “Ae(0-t) (urine)” value [1, 12] of the same compound?
Answer: Its value is 11326.187 ng.

Question: What about the “Serum FSH levels” value [2, 13] of the same compound?
Answer: Its value is “completely suppressed from Day 6 to Day 16”.

Question: What about the “Serum LH levels” value [2, 13] of the same compound?
Answer: Its value is “completely suppressed from Day 6 to Day 16”.

Question: What about the “Serum PSA decrease compared to baseline” value ([2]; patients receiving 0.5 mg) of the same compound?
Answer: Its value is “approximately 40%”.

Question: What about the “Distribution ratio into blood cells” value ([3]; 0.01 μg/mL API-FB) of the same compound?
Answer: Its value is 2.4%.

Question: What about the “Distribution ratio into blood cells” value ([3]; 0.1 μg/mL API-FB) of the same compound?
Answer: Its value is 2.0%.

Question: What about the “Distribution ratio into blood cells” value ([3]; 1 μg/mL API-FB) of the same compound?
Answer: The value was 1.6%.

Question: What about the “Distribution ratio into blood cells” value ([3]; 10 μg/mL API-FB) of the same compound?
Answer: Its value is 1.2%.
